Measurements as given in ChEMBL document CHEMBL2331104, “Characterization of human carbonic anhydrase XII stability and inhibitor binding” (Bioorg Med Chem, 2013).
Calls of active or inactive are those of the source. The calls are words filed in the database; no cut-off is given here.

Legend:
[1] = target: T1, Carbonic anhydrase 12 (Homo sapiens, UniProt O43570); test: Inhibition of human carbonic anhydrase 12
[2] = target: T1, Carbonic anhydrase 12; test: Binding affinity to human recombinant carbonic anhydrase 12 expressed in Escherichia coli Rosetta (DE3) assessed as protein stability at pH 10 by fluorescent thermal shift assay
[3] = target: T1, Carbonic anhydrase 12; test: Binding affinity to human recombinant carbonic anhydrase 12 expressed in Escherichia coli Rosetta (DE3) assessed as protein stability at pH 5 by fluorescent thermal shift assay
[4] = target: T1, Carbonic anhydrase 12; test: Binding affinity to human recombinant carbonic anhydrase 12 expressed in Escherichia coli Rosetta (DE3) assessed as protein stability at pH 6 by fluorescent thermal shift assay

T1 sequence (O43570 whole entry): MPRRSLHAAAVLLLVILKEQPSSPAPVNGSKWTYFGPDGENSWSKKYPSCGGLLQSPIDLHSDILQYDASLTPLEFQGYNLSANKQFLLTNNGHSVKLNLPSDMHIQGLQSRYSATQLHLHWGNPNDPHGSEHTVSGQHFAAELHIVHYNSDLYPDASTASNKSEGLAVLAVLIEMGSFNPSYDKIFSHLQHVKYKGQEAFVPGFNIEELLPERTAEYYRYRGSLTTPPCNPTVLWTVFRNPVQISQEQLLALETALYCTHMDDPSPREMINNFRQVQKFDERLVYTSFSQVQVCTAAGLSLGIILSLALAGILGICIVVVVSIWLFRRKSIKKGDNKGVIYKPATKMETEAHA

Ki [1] [nM]	Activity [2]	Activity [3]	Activity [4]	Structure (SMILES)
0.98				CCCc1ccc2ccc(=O)oc2c1C(C)=O
	inactive	inactive	Active	CCOc1ccc2nc(S(N)(=O)=O)sc2c1
	inactive	inactive	Active	NS(=O)(=O)C(F)(F)F
1				CCc1ccc2ccc(=O)oc2c1C(C)=O
